Measurements reported in patent US20020137929A1, “1 - (3-heterocyclylphenyl) isothiourea, -isourea, -guanidine and -amidine herbicidal agents” (Intellectual Property Department, BASF Aktiengesellschaft, priority 1998, published 2002).

Experiments:
[1] = test system: TRZAWR (Wheat, Winter, cv Riband); test: Postemergence herbicidal evaluation; assay type: in vivo, Triticum aestivum; conditions: for TRZAWR herbicidal rating: postemergence
Procedure, shortened: (§1)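 Visual 0-9 injury score (stand, vigor, malformation, size, chlorosis, appearance vs untreated) taken four to five weeks post-spray, averaged across repeat tests. Test plants about two weeks old; foliar spray of acetone/water (1:1) with 0.5% surfactant delivering ~0.0156-0.500 kg active/ha.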

ORYSAT (Rice, Tebonnet) = test: Preemergence herbicidal evaluation; assay type: in vivo, Oryza sativa, (L.) Tebonnet; conditions: rated 4-5 weeks after treatment
Procedure, shortened: (§2)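 Test compound, dissolved in aqueous acetone, was sprayed over planted soil cups at an equivalent of about 0.0156 to 0.500 kg/ha; seeds had been mixed with potting soil. Greenhouse growth followed, with visual 0-9 scoring of injury at four to five weeks.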

[2] = test system: SAGPY (Arrowhead (Pygmaea)); test: Preemergence weed control under flooded paddy conditions; assay type: in vivo, Sagittaria pygmaea; conditions: rated 3-4 weeks after treatment
Procedure, shortened: (§3)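 Ratings on a 0-9 visual scale cover stand, vigor, malformation, size, chlorosis and overall appearance relative to a control, taken three to four weeks post-treatment. Application was into flood water over freshly sown silt loam at roughly 0.0313 to 0.500 kg/ha.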

GALAP (Galium) [3] = test: Preemergence herbicidal evaluation; assay type: in vivo, Galium aparine; conditions: rated 4-5 weeks after treatment
Procedure, shortened: as §2

CASOB (Sicklepod) = test: Postemergence herbicidal evaluation; assay type: in vivo, Cassia obtusifolia; conditions: for CASOB herbicidal rating: postemergence
Procedure, shortened: as §1

CYPSE (Flatsedge) = test: Preemergence weed control under flooded paddy conditions; assay type: in vivo, Cyperus serotinus; conditions: rated 3-4 weeks after treatment
Procedure, shortened: as §3

AMBEL (Ragweed, Common) = test: Postemergence herbicidal evaluation; assay type: in vivo, Ambrosia artemisifolia; conditions: for AMBEL herbicidal rating: postemergence
Procedure, shortened: as §1

[4] = test system: ECHORC (Watergrass (Calif.)); test: Preemergence weed control under flooded paddy conditions; assay type: in vivo, Echinochloa oryzoides; conditions: rated 3-4 weeks after treatment
Procedure, shortened: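 Visual injury scored 0-9 against control three to four weeks post-treatment, greenhouse-grown. Application: acetone/water (50/50) solutions dosed directly into flood water (1.5-3 cm over silt loam, planted top 0.5 cm), roughly 0.0313 to 0.500 kg/ha active ingredient.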

[5] = test system: GLXMAW (Soybean, Williams); test: Postemergence herbicidal evaluation; assay type: in vivo, Glycine max, (L.) Merr. cv Williams; conditions: for GLXMAW herbicidal rating: postemergence
Procedure, shortened: as §1

SETVI (Foxtail, Green) = test: Preemergence herbicidal evaluation; assay type: in vivo, Setaria viridis; conditions: rated 4-5 weeks after treatment
Procedure, shortened: as §2

[6] = test system: SAGPY (Arrowhead (Pygmaea)); test: Postemergence weed control under flooded paddy conditions; assay type: in vivo, Sagittaria pygmaea; conditions: postemergence weeds
Procedure, shortened: (§4)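 Herbicidal effect is judged by eye on a 0–9 scale versus control, 3–4 weeks after dosing. Dosing is into flood water kept 1.5–3 cm over the soil, at about 0.0313–0.500 kg/ha in aqueous/acetone 50/50 v/v, on 3–5 cm weeds and 1.5–2.5-leaf rice seedlings.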

GALAP (Galium) [7] = test: Postemergence herbicidal evaluation; assay type: in vivo, Galium aparine; conditions: for GALAP herbicidal rating: postemergence
Procedure, shortened: as §1

[8] = test system: ECHORC (Watergrass (Calif.)); test: Postemergence weed control under flooded paddy conditions; assay type: in vivo, Echinochloa oryzoides; conditions: postemergence weeds
Procedure, shortened: as §4

[9] = rate 0.0313 kg/ha, 3-4 weeks after treatment
[10] = rate 0.0625 kg/ha, 3-4 weeks after treatment
[11] = rate 0.1250 kg/ha, 3-4 weeks after treatment
[12] = rate 0.2500 kg/ha, 3-4 weeks after treatment
[13] = Rate 0.0313 kg/ha, rated 3 to 4 weeks after treatment
[14] = Rate 0.0625 kg/ha, rated 3 to 4 weeks after treatment
[15] = Rate 0.1250 kg/ha, rated 3 to 4 weeks after treatment
[16] = Rate 0.2500 kg/ha, rated 3 to 4 weeks after treatment

CCOC(=O)CN1CCSC1=Nc1cc(-n2nc(C)n(C(F)F)c2=O)c(F)cc1Cl [Compound 36]
4.0: Preemergence herbicidal rating ORYSAT (ORYSAT (Rice, Tebonnet); rate 0.2500 kg/ha) | Herbicidal rating CYPSE (CYPSE (Flatsedge); 0.2500 kg/ha) | Herbicidal rating ECHORC ([4]; 0.0313 kg/ha) | Postemergence herbicidal rating GALAP (GALAP (Galium) [7]; Rate 0.0630 kg/ha) | Herbicidal rating ECHORC [8, 9]
2.0: Herbicidal rating CYPSE (CYPSE (Flatsedge); 0.1250 kg/ha) | Postemergence herbicidal rating AMBEL (AMBEL (Ragweed, Common); Rate 0.0158 kg/ha)
1.5: Postemergence herbicidal rating TRZAWR ([1]; Rate 0.0158 kg/ha)
5.0: Postemergence herbicidal rating GLXMAW ([5]; Rate 0.0158 kg/ha)
2.5: Postemergence herbicidal rating TRZAWR ([1]; Rate 0.0315 kg/ha)
0.0: Preemergence herbicidal rating ORYSAT (ORYSAT (Rice, Tebonnet); rate 0.0625 kg/ha) | Preemergence herbicidal rating ORYSAT (ORYSAT (Rice, Tebonnet); rate 0.1250 kg/ha) | Herbicidal rating SAGPY ([2]; 0.0313 kg/ha) | Herbicidal rating SAGPY ([2]; 0.0625 kg/ha) | Postemergence herbicidal rating CASOB (CASOB (Sicklepod); Rate 0.0158 kg/ha) | Postemergence herbicidal rating CASOB (CASOB (Sicklepod); Rate 0.0315 kg/ha) | Postemergence herbicidal rating CASOB (CASOB (Sicklepod); Rate 0.0630 kg/ha) | Herbicidal rating CYPSE (CYPSE (Flatsedge); 0.0313 kg/ha) | Herbicidal rating CYPSE (CYPSE (Flatsedge); 0.0625 kg/ha) | Preemergence herbicidal rating SETVI (SETVI (Foxtail, Green); rate 0.0625 kg/ha) | Herbicidal rating SAGPY [6, 9] | Herbicidal rating SAGPY [6, 10] | Postemergence herbicidal rating GALAP (GALAP (Galium) [7]; Rate 0.0158 kg/ha)
6.0: Herbicidal rating ECHORC ([4]; 0.0625 kg/ha) | Herbicidal rating ECHORC [8, 10]
1.0: Postemergence herbicidal rating GALAP (GALAP (Galium) [7]; Rate 0.0315 kg/ha)
5.5: Postemergence herbicidal rating GLXMAW ([5]; Rate 0.0315 kg/ha)
7.0: Herbicidal rating ECHORC ([4]; 0.1250 kg/ha) | Herbicidal rating ECHORC [8, 11]
3.5: Postemergence herbicidal rating TRZAWR ([1]; Rate 0.0630 kg/ha)
9.0: Herbicidal rating SAGPY ([2]; 0.2500 kg/ha) | Preemergence herbicidal rating GALAP (GALAP (Galium) [3]; rate 0.0625 kg/ha) | Preemergence herbicidal rating GALAP (GALAP (Galium) [3]; rate 0.1250 kg/ha) | Preemergence herbicidal rating GALAP (GALAP (Galium) [3]; rate 0.2500 kg/ha) | Postemergence herbicidal rating AMBEL (AMBEL (Ragweed, Common); Rate 0.0630 kg/ha) | Herbicidal rating ECHORC ([4]; 0.2500 kg/ha) | Preemergence herbicidal rating SETVI (SETVI (Foxtail, Green); rate 0.1250 kg/ha) | Preemergence herbicidal rating SETVI (SETVI (Foxtail, Green); rate 0.2500 kg/ha) | Herbicidal rating SAGPY [6, 12] | Herbicidal rating ECHORC [8, 12]
3.0: Herbicidal rating SAGPY ([2]; 0.1250 kg/ha) | Postemergence herbicidal rating AMBEL (AMBEL (Ragweed, Common); Rate 0.0315 kg/ha) | Herbicidal rating SAGPY [6, 11]
8.0: Postemergence herbicidal rating GLXMAW ([5]; Rate 0.0630 kg/ha)

Cn1c(C(F)(F)F)cc(=O)n(-c2cc(N=C3SCC(=O)N3[C@H](Cc3ccccc3)C(=O)O)c(Cl)cc2F)c1=O [Compound 69, α-Benzyl-2-{{2-chloro-5-[3,6-dihydro-3-methyl-2,6-dioxo-4-(trifluoromethyl)-1(2H)-pyrimidinyl]-4-fluorophenyl}imino}-4-oxo-3-thiazolidineacetic acid, D-]
4.0: ECHORC herbicidal effect rating ([4]; 0.0625 kg/ha) | Preemergence herbicidal rating SETVI (SETVI (Foxtail, Green); rate 0.1250 kg/ha) | Herbicidal rating ECHORC [8, 14]
2.0: CASOB herbicidal rating (CASOB (Sicklepod); rate 0.0315 kg/ha) | CASOB herbicidal rating (CASOB (Sicklepod); rate 0.0630 kg/ha)
6.0: GLXMAW herbicidal rating ([5]; rate 0.0315 kg/ha) | GLXMAW herbicidal rating ([5]; rate 0.0630 kg/ha)
7.0: ECHORC herbicidal effect rating ([4]; 0.2500 kg/ha) | Preemergence herbicidal rating SETVI (SETVI (Foxtail, Green); rate 0.2500 kg/ha) | Herbicidal rating ECHORC [8, 16]
1.0: Preemergence herbicidal rating ORYSAT (ORYSAT (Rice, Tebonnet); rate 0.1250 kg/ha) | Preemergence herbicidal rating ORYSAT (ORYSAT (Rice, Tebonnet); rate 0.2500 kg/ha) | Preemergence herbicidal rating GALAP (GALAP (Galium) [3]; rate 0.1250 kg/ha) | Preemergence herbicidal rating GALAP (GALAP (Galium) [3]; rate 0.2500 kg/ha) | CASOB herbicidal rating (CASOB (Sicklepod); rate 0.0158 kg/ha) | GALAP herbicidal rating (GALAP (Galium) [7]; rate 0.0315 kg/ha)
4.5: TRZAWR herbicidal rating ([1]; rate 0.0630 kg/ha)
5.5: GLXMAW herbicidal rating ([5]; rate 0.0158 kg/ha)
5.0: ECHORC herbicidal effect rating ([4]; 0.1250 kg/ha) | GALAP herbicidal rating (GALAP (Galium) [7]; rate 0.0630 kg/ha) | Herbicidal rating ECHORC [8, 15]
9.0: CYPSE herbicidal effect rating (CYPSE (Flatsedge); 0.1250 kg/ha) | CYPSE herbicidal effect rating (CYPSE (Flatsedge); 0.2500 kg/ha) | AMBEL herbicidal rating (AMBEL (Ragweed, Common); rate 0.0158 kg/ha) | AMBEL herbicidal rating (AMBEL (Ragweed, Common); rate 0.0315 kg/ha) | AMBEL herbicidal rating (AMBEL (Ragweed, Common); rate 0.0630 kg/ha)
0.0: Preemergence herbicidal rating ORYSAT (ORYSAT (Rice, Tebonnet); rate 0.0156 kg/ha) | Preemergence herbicidal rating ORYSAT (ORYSAT (Rice, Tebonnet); rate 0.0313 kg/ha) | Preemergence herbicidal rating ORYSAT (ORYSAT (Rice, Tebonnet); rate 0.0625 kg/ha) | SAGPY herbicidal effect rating ([2]; 0.0313 kg/ha) | SAGPY herbicidal effect rating ([2]; 0.0625 kg/ha) | Preemergence herbicidal rating GALAP (GALAP (Galium) [3]; rate 0.0156 kg/ha) | Preemergence herbicidal rating GALAP (GALAP (Galium) [3]; rate 0.0313 kg/ha) | Preemergence herbicidal rating GALAP (GALAP (Galium) [3]; rate 0.0625 kg/ha) | ECHORC herbicidal effect rating ([4]; 0.0313 kg/ha) | Preemergence herbicidal rating SETVI (SETVI (Foxtail, Green); rate 0.0156 kg/ha) | Preemergence herbicidal rating SETVI (SETVI (Foxtail, Green); rate 0.0313 kg/ha) | Preemergence herbicidal rating SETVI (SETVI (Foxtail, Green); rate 0.0625 kg/ha) | Herbicidal rating SAGPY [6, 13] | Herbicidal rating SAGPY [6, 14] | GALAP herbicidal rating (GALAP (Galium) [7]; rate 0.0158 kg/ha) | Herbicidal rating ECHORC [8, 13]
3.0: TRZAWR herbicidal rating ([1]; rate 0.0158 kg/ha) | TRZAWR herbicidal rating ([1]; rate 0.0315 kg/ha) | SAGPY herbicidal effect rating ([2]; 0.1250 kg/ha) | SAGPY herbicidal effect rating ([2]; 0.2500 kg/ha) | CYPSE herbicidal effect rating (CYPSE (Flatsedge); 0.0313 kg/ha) | CYPSE herbicidal effect rating (CYPSE (Flatsedge); 0.0625 kg/ha) | Herbicidal rating SAGPY [6, 15] | Herbicidal rating SAGPY [6, 16]
